Results reported in patent US20260209249A1, “NOVEL TRICYCLIC COMPOUND AS KRAS G12D INHIBITOR, AND USE THEREOF” (SK Biopharmaceuticals Co., priority 2022, published 2026).
pIC50: −log10 of the molar value.

Key:
[1] = test system: KRAS G12D mutant pancreatic cancer cell line AsPC-1; assay: Cell viability assay using KRAS G12D mutant cells (AsPC-1, 3D culture, celltiter-glo 3D); assay type: cell-based; settings: Homo sapiens, ASPC1, 5th day after compound treatment
Procedure: Test Example 3: Cell Viability Assay Using KRAS G12D Mutant Cells
The KRAS G12D mutant pancreatic cancer cell line AsPC-1 was obtained from the Korean Cell Line Bank (KCLB) and maintained in 100-mm dishes or T75 (75 cm^2) flasks using RPM11640+10% fetal bovine serum (FBS)+1% Penicillin-Streptomycin medium. The cells were cultured at 37° C. with 5% CO2. The number of viable cells was counted using Countess (Invitrogen).
When AsPC-1 cells reached 85-100% confluence in the flask, the cells were harvested using 1× trypsin/EDTA solution, and seeded into a 96-well plate for 3D culture at 1000 cells/100 μL/well. The next day, the compounds were diluted ⅕ with DMSO from 10 μM or 50 μM to 0.0001 μM or 0.0006 μM and treated 1:1 (v/v) in the plate where the cells were seeded.
Cell culture was terminated on the 5th day after compound treatment, and cell viability at each concentration was measured using the celltiter-glo 3D cell viability assay kit.
Cell viability assays were normalized to 100% for the DMSO-treated group and expressed as a percentage of the number of viable cells when treated with the compound.
Cell viability %=(average RLU of group treated with test substance−average RLU of untreated group)/(average RLU of group treated with DMSO−average RLU of untreated group)×100
The data were modeled using GraphPad Prism 9 (GraphPad Software) by applying a nonlinear regression curve fit with a four-parameter sigmoidal dose-response curve to determine cell viability as a function of compound concentration. The 50% inhibitory concentration (IC50) corresponds to the concentration at which the curve intersects the midpoint of cell viability. The results of the inhibitory effect of the compounds according to one embodiment of the present application on the viability of KRAS G12D mutant cells are presented in Table 4.

[2] = target: T1, GppNHp-KRAS G12D mutant protein (Homo sapiens, UniProt P01116, G12D); assay: Differential scanning fluorimetry (DSF) binding affinity to GppNHp-KRAS G12D mutant protein; settings: DSF thermal shift, 10 μM compound, 4 μg KRAS protein, 50 mM HEPES (pH 7.5)
T1 construct: purchased Daegu Gyeongbuk Medical Innovation Foundation (DGMIF), made to order
In short: (§1)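 Thermal shift ΔTm was measured at 10 μM compound over a 25–99 °C ramp (0.05 °C/s), read at 580 nm ex/623 nm em with SYPRO Orange (2×). The protein (4 μg) was preincubated with compound for 30 min at room temperature, in 50 mM HEPES pH 7.5 for GppNHp-KRAS G12D or in kit buffer for GDP-KRAS G12D.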

[3] = target: T2, GDP-KRAS G12D mutant protein (Homo sapiens, UniProt P01116, G12D); assay: Differential scanning fluorimetry (DSF) binding affinity to GDP-KRAS G12D mutant protein; settings: DSF thermal shift, 10 μM compound, 4 μg KRAS protein
T2 construct: purchased Daegu Gyeongbuk Medical Innovation Foundation (DGMIF), made to order
In short: as §1

[4] = test system: ERK phosphorylation (pERK) induced by KRAS G12D mutation; assay: Inhibitory activity against ERK phosphorylation (pERK) induced by KRAS G12D mutation, immunofluorescence assay in AsPC-1 cells; assay type: cell-based; settings: Homo sapiens, ASPC1, 3 h drug treatment, pERK (Thr202/Tyr204) signal normalized to DAPI
Excerpt: Test Example 2: Measurement of Inhibitory Activity Against ERK Phosphorylation (pERK) Induced by KRAS G12D Mutation (Immunofluorescence Assay)
Immunofluorescence is a method used to detect specific substances within cells or tissues through antigen-antibody interactions, and allows for the identification of the presence or absence of specific proteins by using antibodies labeled with various fluorescent dyes. After a primary antibody that recognizes a specific protein selectively binds to the epitope, a fluorescent antibody (secondary antibody) is bound to the primary antibody.
It was confirmed as follows that the compounds according to an embodiment of the present application inhibit phosphorylation of extracellular signal-regulated kinases (Phospho-ERK, pERK) induced by KRAS G12D mutation.
AsPC-1 cells were seeded at a density of 10,000 cells/well in RPMI-1640 medium containing 10% FBS and 1% Penicillin-Streptomycin in 384-well plates (Perkinelmer, #6057300) and allowed to attach for 16 h. After the cells attached to the plate, the cells were treated with drugs at a maximum concentration of 10 μM with a 3-fold serial dilution. After 3 h of drug treatment, the medium was removed and the cells were treated with 50 μL of 4% formaldehyde (Biosesang, #PC2031-050-00) for 20 min and washed three times with 50 μL of phosphate buffered saline (PBS).
50 μL of PBS containing 0.3% Triton X-100 (Sigma, #T8787-250 mL) was added and reacted for 20 minutes to allow antibody penetration into cells, and then the plate was washed three times with 50 μL of PBS. To block nonspecific binding of antibodies to the plate, 50 μL of PBS containing 2% BSA (sigma, #A7906-500G) and 0.01% Tween-20 (Sigma, #P1379-500 mL) (hereinafter referred to as PBS-T) was added, and reacted at room temperature for 2 hours.
To detect pERK, the primary antibody (cell signaling, #9101) was diluted 1:500 in PBS-T containing 2% BSA, 50 μL was added, and the plate was stored in a refrigerator at 4° C. for 16 hours to react, followed by washing three times with 50 μL of PBS-T. To visualize the primary antibody, the secondary antibody, i.e., anti-rabbit-Alexa Fluor 488 (ThermoFisher, #A11008), was diluted 1:1000 in PBS-T containing 2% BSA, 50 μL was added, and after reaction at room temperature for 1 hour, the plate was washed three times with 50 μL of PBS-T. Next, to visualize the nuclei of cells, DAPI (Thermofisher, #62248, 1 mg/mL) was diluted 1:1000 in PBS-T, 50 μL each was added, reacted at room temperature for 10 minutes, and washed three times with 50 μL of PBS-T. 50 μL of PBS-T was added to each well, and the plate was read for fluorescence value using HCS equipment (MOLECULAR DEVICES/ImageXpress Micro).
Data analysis was performed by normalizing the pERK (Thr202/Tyr204) signal to the DAPI signal and calculating the percentage relative to the DMSO as a control. The IC50 value was determined by fitting a four-parameter dose-response curve using the GraphPad Prism software (version 8.4.3), and interpolating the concentration at which 50% inhibition occurred. The results of calculating the inhibitory efficacy of the compounds according to one embodiment of the present application against KRAS G12D mutation-induced pERK activity are shown in Table 3.

For `CCc1c(F)ccc2cc(O)cc(-c3cc4nc(OC[C@@]56CCCN5C[C@H](F)C6)nc(N5C[C@H]6CC[C@@H](C5)N6)c4n4ccnc34)c12` [Example 1, 4-(1-((1 R,5S)-3,8-diazabicyclo[3.2.1]octan-3-yl)-3-(((2R,7aS)-2-fluorotetrahydro-1H-pyrrolizin-7a(5H)-yl)methoxy)imidazo[1′,2′:1,6]pyrido[3,2-d]pyrimidin-6-yl)-5-ethyl-6-fluoronaphthalen-2-ol], the pIC50 [1] was 6.44, the “GppNHp-KRAS G12D (ΔTmD, ° C.)” value [2] was 4.27 °C and the “GDP-KRAS G12D (ΔTmD, ° C.)” value [3] was 10.05 °C. The pIC50 [4] was 6.49.

`C#Cc1c(F)ccc2cc(N)cc(-c3cc4nc(OC[C@@]56CCCN5C[C@H](F)C6)nc(N5[C@@H]6CC[C@H]5CNC6)c4n4ccnc34)c12` [Example 14, 4-(1-((1R,5S)-3,8-diazabicyclo[3.2.1]octan-8-yl)-3-(((2R,7aS)-2-fluorotetrahydro-1H-pyrrolizin-7a(5H)-yl)methoxy)imidazo[1′,2′:1,6]pyrido[3,2-d]pyrimidin-6-yl)-5-ethynyl-6-fluoronaphthalen-2-amine] was tested, and the pIC50 [1] was 7.28, the “GppNHp-KRAS G12D (ΔTmD, ° C.)” value [2] was 4.73 °C and the “GDP-KRAS G12D (ΔTmD, ° C.)” value [3] was 7.98 °C. The pIC50 [4] was 7.12.

`C#Cc1c(F)ccc2cc(O)cc(-c3cc4nc(OC[C@@]56CCCN5C/C(=C\F)C6)nc(N5C[C@H]6CC[C@@H](C5)N6)c4n4ccnc34)c12` [Example 29, 4-(1-((1R,5S)-3,8-diazabicyclo[3.2.1]octan-3-yl)-3-(((S,Z)-2-(fluoromethylene)tetrahydro-1H-pyrrolizin-7a(5H)-yl)methoxy)imidazo[1′,2′:1,6]pyrido[3,2-d]pyrimidin-6-yl)-5-ethynyl-6-fluoronaphthalen-2-ol] was tested, and the pIC50 [1] was 7.72, the “GppNHp-KRAS G12D (ΔTmD, ° C.)” value [2] was 6.82 °C and the “GDP-KRAS G12D (ΔTmD, ° C.)” value [3] was 12.01 °C. For the same compound, the pIC50 [4] was 7.82.

With `C#Cc1c(F)ccc2cc(O)cc(-c3c(F)c4nc(OC[C@@]56CCCN5C[C@H](F)C6)nc(N5CC6CCC5CN6)c4c4cn(C)nc34)c12` (stereo partly drawn) [Example 88, 4-(9-(2,5-diazabicyclo[2.2.2]octan-2-yl)-5-fluoro-7-(((2R,7aS)-2-fluorotetrahydro-1H-pyrrolizin-7a(5H)-yl)methoxy)-2-methyl-2H-pyrazolo[4,3-n]quinazolin-4-yl)-5-ethynyl-6-fluoronaphthalen-2-ol] the pIC50 [1] was 6.13, the “GppNHp-KRAS G12D (ΔTmD, ° C.)” value [2] was 5.31 °C and the “GDP-KRAS G12D (ΔTmD, ° C.)” value [3] was 6.35 °C. The pIC50 [4] was 6.32.

`C#Cc1c(F)ccc2cc(O)cc(-c3c(F)c4nc(OC[C@@]56CCCN5C[C@H](F)C6)nc(NCC5(N(C)C)CCC5)c4c4cc(C)oc34)c12` [Example 48, 4-(1-(((1-(dimethylamino)cyclobutyl)methyl)amino)-5-fluoro-3-(((2R,7aS)-2-fluorotetrahydro-1H-pyrrolizin-7a(5H)-yl)methoxy)-8-methylfuro[3,2-n]quinazolin-6-yl)-5-ethynyl-6-fluoronaphthalen-2-ol] gave a pIC50 [1] of 6.87 and a pIC50 [4] of 6.48.

For `CCc1c(F)ccc2cc(O)cc(-c3c(F)c4nc(OC[C@@]56CCCN5C[C@H](F)C6)nc(N5C[C@H]6CC[C@@H](C5)N6)c4c4cc(C)oc34)c12` [Example 45, 4-(1-((1R,5S)-3,8-diazabicyclo[3.2.1]octan-3-yl)-5-fluoro-3-(((2R,7aS)-2-fluorotetrahydro-1H-pyrrolizin-7a(5H)-yl)methoxy)-8-methylfuro[3,2-n]quinazolin-6-yl)-5-ethyl-6-fluoronaphthalen-2-ol], the pIC50 [1] was 7.43 and the pIC50 [4] was 7.15.

In the case of `C#Cc1c(F)ccc2cc(O)cc(-c3cc4nc(OC[C@@]56CCCN5C/C(=C\F)C6)nc(N5C[C@H]6CC[C@@H](C5)N6)c4c4cn(C)nc34)c12` [Example 75, 4-(9-((1 R,5S)-3,8-diazabicyclo[3.2.1]octan-3-yl)-7-(((S,Z)-2-(fluoromethylene)tetrahydro-1H-pyrrolizin-7a(5H)-yl)methoxy)-2-methyl-2H-pyrazolo[4,3-f]quinazolin-4-yl)-5-ethynyl-6-fluoronaphthalen-2-ol], the pIC50 [1] was 7.47, the “GppNHp-KRAS G12D (ΔTmD, ° C.)” value [2] was 9.60 °C and the “GDP-KRAS G12D (ΔTmD, ° C.)” value [3] was 13.74 °C. For the same compound, the pIC50 [4] was 7.70.

`CCc1c(F)ccc2cc(O)cc(-c3c(F)c4nc(OC[C@@]56CCCN5C/C(=C\F)C6)nc(N5C[C@H]6CC[C@@H](C5)N6)c4c4cn(C)nc34)c12` [Example 85, 4-(9-((1R,5S)-3,8-diazabicyclo[3.2.1]octan-3-yl)-5-fluoro-7-(((S,Z)-2-(fluoromethylene)tetrahydro-1H-pyrrolizin-7a(5H)-yl)methoxy)-2-methyl-2H-pyrazolo[4,3-f]quinazolin-4-yl)-5-ethyl-6-fluoronaphthalen-2-ol] was tested, and the pIC50 [1] was 7.96, the “GppNHp-KRAS G12D (ΔTmD, ° C.)” value [2] was 12.43 °C and the “GDP-KRAS G12D (ΔTmD, ° C.)” value [3] was 15.24 °C. For the same compound, the pIC50 [4] was 8.15.

In the case of `C#Cc1c(F)ccc2cc(O)cc(-c3c(F)c4nc(OC[C@]56CC(=C)CN5C[C@@H](F)C6)nc(N5C[C@H]6CC[C@@H](C5)N6)c4c4cc(C)oc34)c12` [Example 65, 4-(1-((1R,5S)-3,8-diazabicyclo[3.2.1]octan-3-yl)-5-fluoro-3-(((2S,7aR)-2-fluoro-6-methylenetetrahydro-1H-pyrrolizin-7a(5H)-yl)methoxy)-8-methylfuro[3,2-f]quinazolin-6-yl)-5-ethynyl-6-fluoronaphthalen-2-ol], the pIC50 [1] was 8.30, the “GppNHp-KRAS G12D (ΔTmD, ° C.)” value [2] was 8.60 °C and the “GDP-KRAS G12D (ΔTmD, ° C.)” value [3] was 14.23 °C. For the same compound, the pIC50 [4] was 8.40.

Compound `Cc1cc2c(o1)c(-c1cc(O)cc3ccc(F)c(F)c13)c(F)c1nc(OC[C@@]34CCCN3C[C@H](F)C4)nc(N3C[C@H]4CC[C@@H](C3)N4)c12` [Example 46, 4-(1-((1R,5S)-3,8-diazabicyclo[3.2.1]octan-3-yl)-5-fluoro-3-(((2R,7aS)-2-fluorotetrahydro-1H-pyrrolizin-7a(5H)-yl)methoxy)-8-methylfuro[3,2-n]quinazolin-6-yl)-5,6-difluoronaphthalen-2-ol] has a pIC50 [1] of 7.60 and a pIC50 [4] of 7.35.
